This note sets out measurements from patent US20210238598A1, “COMPOSITIONS, SYSTEMS, AND METHODS FOR BASE DIVERSIFICATION” (Pairwise Plants Services, Inc., priority 2020, published 2021).

This experiment addresses T1, APE1 (Homo sapiens, UniProt P27695).
T1 construct: endogenous in cells; host or cells: HEK293T (ATCC CRL-3216)
Kind of experiment: APE1 inhibitor effect on indels and base diversification by AID or pmCDA1 fused to Cas9 nickase (D10A), HTS. As to conditions: HEK293T cells, 100 μM and 200 μM, 3d, FIG. 6. Format: cell-based. Here is the method:
APE1 was inhibited by using CRT0044876 (Scheme 1), which is a potent and well-known APE1 inhibitor.
To ascertain whether this compound improves base diversification profile, HEK293T cells were treated with AID or pmCDA1 fused to Cas9 nickase (D10A) in the presence of CRT0044876. After 3d, the cells were harvested and analyzed through high-throughput sequencing (HTS).

Structures are written as SMILES.

T1 sequence (P27695 whole entry): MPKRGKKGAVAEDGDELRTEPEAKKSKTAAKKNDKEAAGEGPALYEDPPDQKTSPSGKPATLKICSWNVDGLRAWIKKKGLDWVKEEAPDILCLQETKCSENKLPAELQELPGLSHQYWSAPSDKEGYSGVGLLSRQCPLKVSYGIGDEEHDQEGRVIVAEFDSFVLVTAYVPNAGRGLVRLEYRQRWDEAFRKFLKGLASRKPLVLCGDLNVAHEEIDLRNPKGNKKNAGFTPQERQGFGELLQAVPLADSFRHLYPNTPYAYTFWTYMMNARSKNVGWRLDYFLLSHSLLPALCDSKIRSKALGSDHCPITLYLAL

`O=C(O)c1cc2cccc([N+](=O)[O-])c2[nH]1` [CRT0044876]: the base diversification rate result is given as “some decrease”. Further, the “amount of indel generated” value (multiple target sites) is on record as “significant decrease”.
